Reference: ChEMBL document CHEMBL4130350, “Discovery, mechanism and metabolism studies of 2,3-difluorophenyl-linker-containing PARP1 inhibitors with enhanced in vivo efficacy for cancer therapy” (Eur J Med Chem, 2017)
Values after ≈ are worked out from the molar mass of the structure shown. Each block holds one molecule with its values, some of them ahead of it. Active and inactive are the calls of the source. The calls are words filed in the database; no cut-off is given here.

Legend:
[1] = Volume of distribution in Sprague-Dawley rat at 1 mg/kg, iv by LC-MS/MS analysis; type: ADME, organism-based; settings: in vivo
[2] = AUC in Sprague-Dawley rat at 1 mg/kg, iv by LC-MS/MS analysis; type: ADME, organism-based; settings: in vivo
[3] = Clearance in Sprague-Dawley rat at 1 mg/kg, iv by LC-MS/MS analysis; type: ADME, organism-based; settings: in vivo
[4] = Apparent permeability across apical to basolateral side in human Caco2 cells assessed as drug recovery at 5631.3 pmol after 2 hrs by LC-MS/MS analysis; type: ADME, cell-based; settings: Caco-2, read-out: Drug recovery
[5] = Protein binding in mouse plasma at 0.5 to 50 uM after 4 hrs by LC-MS/MS analysis; type: ADME, cell-free; settings: read-out: PPB (converted)
CAPAN-1 [6] = experiment: Antitumor activity against human Capan1 cells harboring BRCA2 mutant xenografted in nude BALB/cA mouse assessed as tumor growth inhibition at 0.5 mg/kg, po administered once daily for 21 consecutive days measured twice per week; type: functional; settings: CAPAN-1, po, read-out: TGI
MDA-MB-436 [7] = experiment: Antiproliferative activity against human MDA-MB-436 cells after 7 days by CCK8 or SRB assay; type: functional, cell-based; settings: MDA-MB-436, 168 h
[8] = Cmax in Sprague-Dawley rat at 1 mg/kg, iv by LC-MS/MS analysis; type: ADME, organism-based; set-up: dose 1 mg/kg, route intravenous; settings: in vivo
[9] = Apparent permeability across apical to basolateral side in human Caco2 cells after 2 hrs by LC-MS/MS analysis; type: ADME, cell-based; settings: Caco-2
[10] = Oral bioavailability in Sprague-Dawley rat at 2 mg/kg by LC-MS/MS analysis; type: ADME, organism-based; settings: in vivo
[11] = Cmax in Sprague-Dawley rat at 2 mg/kg, po by LC-MS/MS analysis; type: ADME, organism-based; set-up: dose 2 mg/kg, route oral; settings: in vivo
Rattus norvegicus = experiment: Half life in Sprague-Dawley rat at 2 mg/kg, po by LC-MS/MS analysis; type: ADME, organism-based; settings: in vivo
[12] = Cytotoxicity against BRCA2 deficient Chinese hamster VC8 cells after 3 days by CCK8 or SRB assay; type: functional, cell-based; settings: Cricetulus griseus, V-C8, 72 h
[13] = Apparent permeability across basolateral to apical side in human Caco2 cells assessed as drug recovery at 18593.3 pmol after 2 hrs by LC-MS/MS analysis; type: ADME, cell-based; settings: Caco-2, read-out: Drug recovery
[14] = Apparent permeability across basolateral to apical side in human Caco2 cells after 2 hrs by LC-MS/MS analysis; type: ADME, cell-based; settings: Caco-2
[15] = Elimination half-life in mouse liver microsomes at 2 uM up to 60 mins by LC-MS/MS analysis; type: ADME, microsome; settings: read-out: beta t1/2
Mus musculus [16] = experiment: Toxicity in nude BALB/cA mouse xenografted with human Capan1 cells harboring BRCA2 mutant assessed as weight loss at 0.5 mg/kg, po administered once daily for 21 consecutive days measured twice per week; type: organism-based; settings: in vivo
Mus musculus [17] = experiment: Toxicity in nude BALB/cA mouse xenografted with human Capan1 cells harboring BRCA2 mutant assessed as mortality at 0.5 mg/kg, po administered once daily for 21 consecutive days measured twice per week; type: organism-based; settings: in vivo
V79 = experiment: Cytotoxicity against BRCA2 expressing Chinese hamster V79 cells after 3 days by CCK8 or SRB assay; type: cell-based; settings: Cricetulus griseus, V79, 72 h
[18] = Stability in mouse plasma at 1 uM up to 60 mins by LC-MS/MS analysis; type: ADME, cell-free; settings: read-out: Stability
[19] = AUC in Sprague-Dawley rat at 2 mg/kg, po by LC-MS/MS analysis; type: ADME, organism-based; settings: in vivo
CAPAN-1 [20] = experiment: Antiproliferative activity against human Capan1 cells after 7 days by CCK8 or SRB assay; type: functional, cell-based; settings: CAPAN-1, 168 h
[21] = Half life in Sprague-Dawley rat at 1 mg/kg, iv by LC-MS/MS analysis; type: ADME, organism-based; settings: in vivo
CAPAN-1 [22] = experiment: Cell cycle arrest in human Capan1 cells assessed as accumulation at S phase at 1 uM after 72 hrs by propidium iodide-staining based flow cytometry (reference value: 21.42%); type: functional
CAPAN-1 [23] = experiment: Cell cycle arrest in human Capan1 cells assessed as accumulation at G2/M phase at 0.1 uM after 72 hrs by propidium iodide-staining based flow cytometry (reference value: 15.26%); type: functional
CAPAN-1 [24] = experiment: Cell cycle arrest in human Capan1 cells assessed as accumulation at S phase at 0.1 uM after 72 hrs by propidium iodide-staining based flow cytometry (reference value: 21.42%); type: functional
[25] = AUC in Sprague-Dawley rat at 20 mg/kg, po by LC-MS/MS analysis; type: ADME, organism-based; settings: in vivo
MDA-MB-436 [26] = experiment: Induction of apoptosis in human MDA-MB-436 cells assessed as late apoptotic cells at 1 uM after 96 hrs by Annexin V-FITC/propidium iodide double-staining based flow cytometery (reference value: 5.61%); type: functional
[27] = AUC in Sprague-Dawley rat at 10 mg/kg, iv by LC-MS/MS analysis; type: ADME, organism-based; settings: in vivo
[28] = Cmax in Sprague-Dawley rat at 20 mg/kg, po by LC-MS/MS analysis; type: ADME, organism-based; set-up: dose 20 mg/kg, route oral; settings: in vivo
MDA-MB-436 [29] = experiment: Induction of apoptosis in human MDA-MB-436 cells assessed as early apoptotic cells at 0.1 uM after 96 hrs by Annexin V-FITC/propidium iodide double-staining based flow cytometery (reference value: 1.90%); type: functional
CAPAN-1 [30] = experiment: Cell cycle arrest in human Capan1 cells assessed as accumulation at G0/G1 phase at 1 uM after 72 hrs by propidium iodide-staining based flow cytometry (reference value: 63.33%); type: functional
CAPAN-1 [31] = experiment: Cell cycle arrest in human Capan1 cells assessed as accumulation at G0/G1 phase at 0.1 uM after 72 hrs by propidium iodide-staining based flow cytometry (reference value: 63.33%); type: functional
MDA-MB-436 [32] = experiment: Induction of apoptosis in human MDA-MB-436 cells assessed as early apoptotic cells at 0.1 uM after 96 hrs in presence of pancaspase inhibitor Z-VAD-FMK by Annexin V-FITC/propidium iodide double-staining based flow cytometery (reference value: 2.32%); type: functional
[33] = Half life in Sprague-Dawley rat at 10 mg/kg, iv by LC-MS/MS analysis; type: ADME, organism-based; settings: in vivo
[34] = Clearance in Sprague-Dawley rat at 10 mg/kg, iv by LC-MS/MS analysis; type: ADME, organism-based; settings: in vivo
[35] = Half life in Sprague-Dawley rat at 20 mg/kg, po by LC-MS/MS analysis; type: ADME, organism-based; settings: in vivo
[36] = Oral bioavailability in Sprague-Dawley rat at 20 mg/kg by LC-MS/MS analysis; type: ADME, organism-based; settings: in vivo
MDA-MB-436 [37] = experiment: Antitumor activity against human MDA-MB-436 cells harboring BRCA1 mutant xenografted in nude BALB/cA mouse assessed as tumor growth inhibition at 100 mg/kg, po administered once daily for 21 consecutive days measured twice per week; type: functional; settings: MDA-MB-436, po, read-out: TGI
MDA-MB-436 [38] = experiment: Induction of apoptosis in human MDA-MB-436 cells assessed as late apoptotic cells at 0.1 uM after 96 hrs in presence of pancaspase inhibitor Z-VAD-FMK by Annexin V-FITC/propidium iodide double-staining based flow cytometery (reference value: 5.11%); type: functional
[39] = Volume of distribution in Sprague-Dawley rat at 10 mg/kg, iv by LC-MS/MS analysis; type: ADME, organism-based; settings: in vivo
MDA-MB-436 [40] = experiment: Induction of apoptosis in human MDA-MB-436 cells assessed as late apoptotic cells at 0.1 uM after 96 hrs by Annexin V-FITC/propidium iodide double-staining based flow cytometery (reference value: 5.61%); type: functional
CAPAN-1 [41] = experiment: Cell cycle arrest in human Capan1 cells assessed as accumulation at G2/M phase at 1 uM after 72 hrs by propidium iodide-staining based flow cytometry (reference value: 15.26%); type: functional
[42] = Solubility of the compound in water after 24 hrs by HPLC analysis; type: physicochemical
MDA-MB-436 [43] = experiment: Induction of apoptosis in human MDA-MB-436 cells assessed as late apoptotic cells at 1 uM after 96 hrs in presence of pancaspase inhibitor Z-VAD-FMK by Annexin V-FITC/propidium iodide double-staining based flow cytometery (reference value: 5.11%); type: functional
MDA-MB-436 [44] = experiment: Induction of apoptosis in human MDA-MB-436 cells assessed as early apoptotic cells at 1 uM after 96 hrs by Annexin V-FITC/propidium iodide double-staining based flow cytometery (reference value: 1.90%); type: functional
MDA-MB-436 [45] = experiment: Induction of apoptosis in human MDA-MB-436 cells assessed as caspase-3/7 activation at 0.1 to 1 uM after 72 hrs by Caspase-Glo 3/7 assay; type: functional, cell-based
MDA-MB-436 [46] = experiment: Induction of apoptosis in human MDA-MB-436 cells assessed as early apoptotic cells at 1 uM after 96 hrs in presence of pancaspase inhibitor Z-VAD-FMK by Annexin V-FITC/propidium iodide double-staining based flow cytometery (reference value: 2.32%); type: functional
[47] = Cmax in Sprague-Dawley rat at 10 mg/kg, iv by LC-MS/MS analysis; type: ADME, organism-based; set-up: dose 10 mg/kg, route intravenous; settings: in vivo

Structure (SMILES): Cn1ncnc1[C@H]1c2n[nH]c(=O)c3cc(F)cc(c23)N[C@@H]1c1ccc(F)cc1 [TALAZOPARIB]
Vd [1]: 1.1 L/kg
AUC [2]: 6540 ng·h/mL
clearance [3]: 3.33 mL/min/kg
recovery at 2 h [4]: 98.4%
fraction unbound at 4 h, up to 50 µM [5]: 0.057
inhibition in vivo at 0.5 mg/kg (CAPAN-1 [6]): 80%
IC50 (MDA-MB-436 [7]): 0.7 nM
Cmax [8]: 2060 ng/mL
Papp A→B at 2 h [9]: 0.9 ×10⁻⁶ cm/s
bioavailability [10]: 104%
Cmax [11]: 3100 ng/mL
t1/2 (Rattus norvegicus): 3.4 h
IC50 [12]: 4.2 nM
recovery at 2 h [13]: 108%
Papp B→A at 2 h [14]: 51.8 ×10⁻⁶ cm/s
half-life at 2 µM [15]: > 1 h
Activity (Mus musculus [16]): Toxic
Activity (Mus musculus [17]): Toxic
IC50 (V79): 5010 nM
remaining at 1 h, 1 µM [18]: 106%
AUC [19]: 13200 ng·h/mL
IC50 (CAPAN-1 [20]): 1.8 nM
half-life [21]: 4.6 h

AUC [25]: 4990 ng·h/mL
IC50 (MDA-MB-436 [7]): 39.3 nM
AUC [27]: 5500 ng·h/mL
Cmax [28]: 2590 ng/mL
half-life [33]: 1.1 h
clearance [34]: 30 mL/min/kg
half-life [35]: 1 h
bioavailability [36]: 45.4%
Vd [39]: 3 L/kg
solubility at 24 h [42]: 104 µg/mL (≈ 239 µM)
Cmax [47]: 12300 ng/mL
Structure (SMILES): O=C(c1cc(Cc2n[nH]c(=O)c3ccccc23)ccc1F)N1CCN(C(=O)C2CC2)CC1 [OLAPARIB]
Activity (CAPAN-1 [22]): 26.14%
Activity (CAPAN-1 [23]): 20.91%
Activity (CAPAN-1 [24]): 27.2%
Activity (MDA-MB-436 [26]): 17.75%
Activity (MDA-MB-436 [29]): 2.5%
Activity (CAPAN-1 [30]): 22.33%
Activity (CAPAN-1 [31]): 51.83%
Activity (MDA-MB-436 [32]): 3.3%
IC50 [12]: 566 nM
inhibition in vivo at 100 mg/kg (MDA-MB-436 [37]): 65%
Activity (MDA-MB-436 [38]): 6.52%
Activity (MDA-MB-436 [40]): 9.78%
Activity (CAPAN-1 [41]): 51.54%
IC50 (V79): 10000 to 54200 nM
Activity (MDA-MB-436 [43]): 9.97%
Activity (MDA-MB-436 [44]): 4.15%
IC50 (CAPAN-1 [20]): 399 nM
Activity (MDA-MB-436 [45]): Active
Activity (MDA-MB-436 [46]): 4.79%
